Experimental data as given in patent US10457710B2, “Antimicrobial peptides, their variants and uses” (priority 2015, dated 2019).
Where a SMILES comes first, the peptide text is derived from it. Where no end group is shown, it is not given here. [ ]: non-standard residue; d: D form.

B1: En-MAP1: protein of 549 amino acids from an endophyte of Empetrum nigrum, GenBank accession number KC466596 (protein, listed as Empetrum nigrum)
chain: MRLVAHPVPDAPLYALMIKACSMGIPQPNDNLWKPRNPLLAKEEKTSKRGRTAPDTERALDLFREMTLRYNIRPTAEVYTAIIAACVKRDDMYDKGFGLFKKMVELERNRMSSEGHDSTSFAPTRATYNALLRGCARNKDLLRARWILAEMLRTAQAKWQEFMEKSKKGEEGVQEWELLEVEEMRPDTNTMAFLFYTYASHTTSSKAVPETEGKKELEGKAEERASEVTSVSPVSEPPEPMDESKLVYSLPTSSQAILREVTSLLDRIKSDQGQQSNLLSSVQINSKLLNSYIAVLSAHCRSSQVVERISEVVVGTKENPKSLFEETGTSVNGYTCFTVIDACGMMEHSPDTYHLACEMWQRWLSLVENATFHRENPLKAKEIGLDSRTISDCWSAMIRLHAKYNQVDEAMKLVHEFARLYPPASLFNSLTFEPSSTSSSSLSPRKGVQEISPLFSSTSLTHSIRGRDISRIQNTMSQDPTLQFRAVQILHLRLVELETRPKDLAYLSWLLKSYEHQLQPKRPKSLQGDLFTSRQAAYNRIVQQRTSSR

Experiments:
S. aureus RN4220 = type: cell-based; settings: antibiotic sensitive strain S. aureus RN4220
Experimental: Minimum inhibition concetrations (MICs) were determined against Escherichia coli (ATCC 25922), Staphylococcus aureus (ATCC 25923), Klebsiella pneumoniae (ATCC 10031) and Pseudomonas aeruginosa (ATCC 27853). Also clinical strains of E. coli, K. pneumoniae, E. cloacae, P. aeruginosa, Serratia marcescens, Proteus mirabilis, S. pneumoniae, Acinetobacter baumannii, A. johnsonii and S. aureus were used for MICs assays. Additionally, clinical strains of yeast including Candida albicans, C. glabrata, C. parapsilosis and C. quillermondiae were used. The susceptibility of these microorganisms to Chain peptides were determined using micro broth dilution assay. Colonies of the respective microorganism from Muller Hinton (MH) agar plates incubated overnight were suspended in MH broth media and final concentration of microorganism was adjusted to 5.0×10^5 cfu/ml. An aliquot of 10 μl of each Chain peptide, or gentamicin, tetracycline as reference antibiotics were added in differing concentrations along with 90 μl of bacterial suspension to 96 well polypropylene plates and incubated at 37° C. for 20 to 24 hours. Concentrations of Chain peptides and reference antibiotics ranged from 0.125 to 128 μg/ml and the MICs were recorded as the lowest concentration with no visual growth of bacteria. Similarly, antifungal MICs were tested in Potato dextrose broth.
(§1) Peptides Chain 104, Chain 105, Chain 201, Chain 308, Chain 310 were tested against antibiotic-sensitive strains of S. aureus RN4220 and methicillin resistant strains of S. aureus COL (MRSA). Chain peptides comprising of either L- or D-form amino acids were tested against these bacteria, and the D-form peptides were found have better activity compared to L-form (Table 6). Synergistic activity of chain peptides along with Ertapenem (4 μg/ml) was tested to know whether it will influence the activity against MRSA strains. […] Chain 310 has the best antibacterial activity against the MRSA strains with a MIC of 0.06 & 0.03 μg/ml along with Ertapenem (4 μg/ml) for both forms of L and D-peptides (Table 6).

MRSA strains = test: MIC, synergistic activity with Ertapenem (4 μg/ml); type: cell-based, S. aureus; settings: S. aureus COL with 4 μg/ml Ertapenem (synergistic activity)
Experimental: as §1

human erythrocytes = type: cell-based
Experimental: In hemolysis assays, the ability of peptides at 128 μg/ml concentration to lyse human erythrocytes to release hemoglobin was measured. The peptides described here preferably have low hemolytic activity (0.2 to 3.8% hemolysis) in mammal body. […] These peptides are useful as antimicrobial drugs as they show little or no side effects at concentrations needed to kill bacteria.
Minimum inhibition concentrations (MICs) were tested by microbroth dilution method and Chain 104, 105 and 109 inhibited the growth of Escherichia coli (ATCC 25922), Staphylococcus aureus (ATCC 25923), Klebsiella pneumoniae (ATCC 10031) and Pseudomonas aeruginosa (ATCC 27853) between 1-8 μg/ml respectively (Tables 3a, 3b and 3c). The membranolytic activities of the peptides were tested by measuring the release of hemoglobin from erythrocytes of fresh blood donated by voluntiers. Hemoglobin levels were determined spectrometrically by taking OD at 540 nm by following the protocol of Schmidtchen et al., 2011.

[1] = +4, 25, 37 and 45° C., 14 days, PBS pH 7.4, activity by RDA
Experimental: FIG. 8a. […] Antibacterial activity was tested by aliquoting 20 μg of peptides incubated at different temperature and activity was measured by zone of inhibition. Peptides at −20° C. served as control.
(§2) Thermal stability was evaluated by diluting peptides to the concentration of 2 mg/ml in PBS buffer (pH 7.4) and incubating at different temperatures, such as +4° C., 25° C. (RT), 37° C. and 45° C., peptides stored at −20° C. were used as control. After each time interval, 100 μl (2 mg/ml) of peptides were taken and stored at −20° C. for radial diffusion assay to determine the antibacterial activity (FIG. 8). Peptides were also tested by diluting them at different pH values starting from pH 4 to 9. The effect of NaCl on the antimicrobial activity was tested by adding different concentrations (50, 100 and 200 mM) of NaCl to MH medium and the minimum inhibitory concentrations were tested against 4 ATCC bacterial strains.

[2] = pH 4 to 9, activity by RDA
Experimental: FIG. 9a. pH stability of chain peptides 104 and 105 was determined by radial diffusion assay (RDA). Different pH ranging from 4-9 was used to check the zone of inhibition.
as §2

S. aureus = test: Antibacterial activity analysis of protein on LB plate; type: cell-based
Experimental: Both folded and unfolded proteins were tested for antibacterial activity against S. aureus by pipetting 10 μg of protein on the S. aureus culture on an LB plate. The activity was also tested in folded and unfolded protein digested with trypsin in 0.01% acetic acid at concentrations of 30 and 60 μg/ml.

Row | Molecule | Minimum inhibitory concentration (MICs), S. aureus RN4220 (S. aureus RN4220) [µg/mL] | Minimum inhibitory concentration (MICs), S. aureus COL + 4 μg/ml Ertapenem (MRSA strains) [µg/mL] | side effects to humans as tested by hemolysis assay (human erythrocytes) | thermostability [1] | pH stability [2] | other results
1 | CC(C)C[C@@H](NC(=O)[C@H](N)CCCNC(=N)N)C(=O)N[C@H](CCCCN)C(=O)N[C@H](Cc1c[nH]c2ccccc12)C(=O)N[C@H](Cc1ccccc1)C(=O)N[C@H](CC(C)C)C(=O)N[C@H](CC(C)C)C(=O)N[C@H](Cc1ccccc1)C(=O)N[C@H](CCCNC(=N)N)C(=O)N[C@H](CCCCN)C(=O)N[C@H](CCCNC(=N)N)C(=O)O [308 D] (H-[dR][dL][dK][dW][dF][dL][dL][dF][dR][dK][dR]-OH) | 4 | 1 | – | – | – | –
2 | CC(C)C[C@@H](NC(=O)[C@@H](CCCCN)NC(=O)[C@@H](CCCCN)NC(=O)[C@@H](Cc1ccccc1)NC(=O)[C@@H](CC(C)C)NC(=O)[C@@H](Cc1c[nH]c2ccccc12)NC(=O)[C@@H](CCCNC(=N)N)NC(=O)[C@@H](Cc1c[nH]c2ccccc12)NC(=O)[C@@H](CCCCN)NC(=O)[C@@H](CCCNC(=N)N)NC(=O)[C@H](N)CCCCN)C(=O)O [310 D] (H-[dK][dR][dK][dW][dR][dW][dL][dF][dK][dK][dL]-OH) | >64 | <0.03 | – | – | – | –
3 | KRKWRWLFKKL [Chain310] | – | – | little side effects to humans | – | – | –
4 | KRKWRWLFKKL [Compound 310] | >64 | 0.06 | – | – | – | –
5 | KWIVWRWRFKR [Chain201] | – | – | little side effects to humans | not hindered by pH or temperature even upto 45 °C for over 14 days | not hindered by pH | –
6 | KWIVWRWRFKR [Compound 201] | 64 | 0.5 | – | – | – | –
7 | RKWRAMIRLHAKRLRK [Chain104] | – | – | little side effects to humans | not hindered by pH or temperature even upto 45 °C for over 14 days | not hindered by pH | –
8 | RKWRAMIRLHAKRLRK [Compound 104] | >64 | 0.25 | – | – | – | –
9 | RKWRAMIRLHAKWLRK [Chain105] | – | – | little side effects to humans | not hindered by pH or temperature even upto 45 °C for over 14 days | not hindered by pH | –
10 | RKWRAMIRLHAKWLRK [Compound 105] | >64 | 0.5 | – | – | – | –
11 | RLKRWRLFRKR [Chain306] | – | – | – | not hindered by pH or temperature even upto 45 °C for over 14 days | not hindered by pH | –
12 | RLKWFLLFRKR [Chain308] | – | – | little side effects to humans | not hindered by pH or temperature even upto 45 °C for over 14 days | not hindered by pH | –
13 | RLKWFLLFRKR [Compound 308] | >64 | 0.5 | – | – | – | –
14 | RLKWFWLFRKR [Chain307] | – | – | little side effects to humans | – | – | –
15 | RRLIWRRFKWLR [Chain204] | – | – | little side effects to humans | not hindered by pH or temperature even upto 45 °C for over 14 days | not hindered by pH | –
16 | WWRLHAKWKLW [Chain109] | – | – | little side effects to humans | – | – | –
17 | B1 | – | – | – | – | – | antibacterial activity against S. aureus (S. aureus; expressed, folded protein): no activity was observed; antibacterial activity against S. aureus (S. aureus; folded full protein digested with trypsin, data not shown): antibacterial activity was observed for up to two hours after digestion; antibacterial activity against S. aureus (S. aureus; trypsin digest of the unfolded protein): No activity was detected
